Measured values taken from PMC11591188, “First Report on Cationic Triphenylphosphonium Compounds as Mitochondriotropic H3R Ligands with Antioxidant Properties” (Antioxidants, 2024).
pKd, pKi: −log10 of the molar value. “And” between values parts separate entries of the source, which are not always exact repeats. Equal values may be shown once. Read-outs that look alike come from different tables or passages of the source.

Columns and labels:
[1] = Oxygen radical absorbance capacity (ORAC-FL) assay; settings: mean Trolox equivalents with SEM, at least three independent experiments, 37 °C
Experimental: Antioxidant properties were analyzed using an oxygen radical absorbance capacity (ORAC) assay at 37 °C [27]. Solutions of the fluorescent probe fluorescein at 100 nM and test ligands at concentrations between 20 µM and 6.25 µM were incubated for 15 min in potassium phosphate buffer (75 mM, pH 7.4) protected from light in black 96-well plates at 37 °C. Then, 2,2′-azobis (2-amidinopropane) dihydrochloride (AAPH) was added as a peroxyl radical generator. The fluorescence intensity ([…]) was measured every minute for 90 min. 6-Hydroxy-2,5,7,8-tetramethylchroman-2-carboxylic acid (Trolox) was used as a standard at concentrations between 20 µM and 6.25 µM. Data were obtained in duplicate from at least three independent experiments and evaluated using GraphPad Prism 7.02. Fluorescence intensity was normalized to that of the blank (without AAPH). The area under the fluorescence decay curve for each antioxidant (AUCantioxidant) and for the negative control without antioxidants (AUCnegative control) were calculated for each concentration by summing the fluorescence intensities at each time point. AUCnegative control was subtracted from the AUCantioxidant to calculate the net AUC. Linear regression of the net AUC against the corresponding antioxidant concentration was performed. The ratios of the antioxidant and Trolox slopes from the same experiment were calculated. Thus, ORAC values were expressed as Trolox equivalents [TE], and caffeic acid was used as a reference.

[2] = Cytotoxic effects on SH-SY5Y cells after 24 h (alamar blue viability assay); type: cell-based; settings: human, SH-SY5Y neuroblastoma cells, 24 h, 95% confidence interval, at least three independent experiments, read-out: LC50
Experimental: (§1) The cytotoxic effects of the tested ligands on neuroblastoma SH-SY5Y cells were determined using the alamar blue viability assay. SH-SY5Y cells were grown in Minimum Essential Medium Eagle (MEME) supplemented with non-essential amino acids, 10% FBS, 100 µg/mL penicillin, 100 units/mL streptomycin, and 2 mM L-glutamine at 37 °C in a humidified atmosphere of 5% CO2. SH-SY5Y cells were seeded in 96-well plates at a density of 8.0 × 10^3 cells per well and grown at 37 °C in a humidified atmosphere of 5% CO2. 24 h after seeding, the test ligands were added at concentrations between 30 µM and 1 nM in a final assay volume of 100 µL per well and incubated for 24 h. Cells treated with 1-methyl-4-phenylpyridinium iodide (MPP+) served as a positive control for cytotoxic effects. The concentration of DMSO was limited to 1% for all the assay points. The medium supplemented with the test compounds was discarded, and 100 µL of resazurin solution in RPMI-1640 medium (44 µM) was added. After two hours of incubation at 37 °C in a humidified atmosphere of 5% CO2, fluorescence intensity ([…]) was determined. Data were obtained in duplicate from at least three independent experiments. LC50 values were evaluated using GraphPad Prism 7.02. using a nonlinear regression. Mean values and 95% confidence intervals were calculated using −log(Ki) and converted to nanomolar concentrations.

SH-SY5Y cells = test: as above; type: cell-based; settings: for effects on cell viability: concentrations below 1 µM
Experimental: as §1

hH3R [3] = molecular target: T1, hH3R (Homo sapiens, UniProt Q9Y5N1); test: hH3R radioligand displacement assay ([3H]Nα-methylhistamine, HEK-293-hH3R membranes); type: binding; settings: for Ki: Table 2, from Ki, read-out: pKi (converted)
T1 construct: expressed in transfected cells; host or cells: HEK-293 cells stably expressing hH3R
Experimental: Radioligand displacement assays were performed on the membrane fractions of HEK-293 cells stably expressing hH3R455, which occurs mainly in the brain, as described previously with slight modifications. HEK-293-hH3R cells were grown in Dulbecco’s Modified Eagle Medium (DMEM) supplemented with 10% FBS, 100 µg/mL penicillin, 100 units/mL streptomycin, and 10 mM HEPES solution at 37 °C in a humidified atmosphere of 5% CO2. To prepare membrane fractions, cells were washed in a phosphate-buffered saline (PBS) solution and harvested. The cells were centrifuged at 3000× g for 10 min at 4 °C and homogenized with Ultraturrax® in ice-cold binding buffer (75 mM Tris-HCl, 10 mM MgCl2, 100 mM NaCl, pH 7.4). The homogenate was centrifuged twice (20,000× g, 20 min, 4 °C) and reconstituted in an ice-cold binding buffer. Test ligands, radiolabeled ligands, and membrane fractions (20 µg/well) were added to 96-well plates to a final assay volume of 200 µL. After 90 min of incubation with shaking at 25 °C, a cell harvester was used to separate bound from free ligands by filtration through GF/B filters pretreated with 0.3% (m/v) polyethylenimine. Radioactivity was determined by liquid scintillation counting. […] The test ligands were evaluated at concentrations between 100 µM and 0.03 nM. […] Specific binding was calculated by subtracting non-specific binding from the raw data. Data were obtained in duplicate from at least three independent experiments and analyzed using GraphPad Prism 7.02. using a nonlinear regression. The Cheng–Prusoff equation was used to calculate Ki values from the IC50 values. Mean values and 95% confidence intervals were calculated using −log(Ki) and converted to nanomolar concentrations.
S4. hH3R Radioligand Displacement Assay
Radioligand displacement assays were performed on the membrane fractions of HEK-293 cells stably expressing hH3R. Cultivation of hH3R-HEK-293 cells and membrane preparation was performed as described previously. [3H]Nα-Methylhistamine was used as the radiolabeled probe at a final […]
-log(Ki) was used to calculate mean values and 95% confidence intervals.
Figure S13. hH3R competition binding curve of compounds 6a
Figure S14. hH3R competition binding curve of compounds 6b […]

hH3R [4] = molecular target: T1, hH3R; settings: cited from earlier work
[5] = [3H]Nα-methylhistamine displacement on HEK-293-hH3R membranes, 95% confidence interval, at least three independent experiments, read-out: hH3R Ki

T1 sequence (Q9Y5N1 whole entry): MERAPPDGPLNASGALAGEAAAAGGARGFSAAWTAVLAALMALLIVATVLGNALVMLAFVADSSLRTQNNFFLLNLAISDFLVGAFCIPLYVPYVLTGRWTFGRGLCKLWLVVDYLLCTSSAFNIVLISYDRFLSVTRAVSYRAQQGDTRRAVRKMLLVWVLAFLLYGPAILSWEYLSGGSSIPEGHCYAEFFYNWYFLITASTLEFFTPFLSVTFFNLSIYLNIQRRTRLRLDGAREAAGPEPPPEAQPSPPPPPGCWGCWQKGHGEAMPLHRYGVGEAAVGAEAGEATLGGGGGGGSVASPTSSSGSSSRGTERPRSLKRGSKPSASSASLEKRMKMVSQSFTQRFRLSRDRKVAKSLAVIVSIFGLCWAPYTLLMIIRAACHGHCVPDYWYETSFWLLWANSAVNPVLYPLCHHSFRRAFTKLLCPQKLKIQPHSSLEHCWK

SMILES	ORAC [1]	CC50 at 24 h [2]	Ki (hH3R [3])	pKi (hH3R [3]; [5])	further results
O=C(O)/C=C/c1ccc(O)c(O)c1 [Caffeic acid, reference compound]	3.08 ± 0.13 TE	–	–	–	–
c1ccc([P+](CCCCOc2ccc(OCCCN3CCCCC3)cc2)(c2ccccc2)c2ccccc2)cc1 [Compound 6a]	1.04 ± 0.03 TE	40 µM	32 nM	7.49	effects on cell viability (SH-SY5Y cells): no significant effects on cell viability
[Br-].c1ccc([P+](CCCCCOc2ccc(OCCCN3CCCCC3)cc2)(c2ccccc2)c2ccccc2)cc1 [Compound 6b, Triphenyl-(5-(4-(3-(piperidin-1-yl)propoxy)phenoxy)pentyl)phosphonium bromide]	0.70 ± 0.01 TE	21.8 µM	17.6 nM	7.75	effects on cell viability (SH-SY5Y cells): no significant effects on cell viability
c1ccc([P+](CCCCCCOc2ccc(OCCCN3CCCCC3)cc2)(c2ccccc2)c2ccccc2)cc1 [Compound 6c, Triphenyltriphenyl-(6-(4-(3-(piperidin-1-yl)propoxy)phenoxy)hexyl)phosphonium bromide]	0.54 TE and 0.54 ± 0.03 TE	11.2 µM	31.5 nM	7.50	–
c1ccc([P+](CCCCCCCCOc2ccc(OCCCN3CCCCC3)cc2)(c2ccccc2)c2ccccc2)cc1 [Compound 6d, Triphenyltriphenyl-(8-(4-(3-(piperidin-1-yl)propoxy)phenoxy)octyl)phosphonium bromide]	0.89 ± 0.16 TE	2.69 µM	20.4 nM	7.69	–
c1ccc([P+](CCCCCCCCCOc2ccc(OCCCN3CCCCC3)cc2)(c2ccccc2)c2ccccc2)cc1 [Compound 6e, Triphenyltriphenyl-(9-(4-(3-(piperidin-1-yl)propoxy)phenoxy)nonyl)phosphonium bromide]	1.07 ± 0.06 TE	< 1 µM	14.1 nM	7.85	CC50 (SH-SY5Y cells; 24 h, 95% confidence interval, at least three independent experiments, read-out: LC50 (the source's name)): 910 nM
c1ccc([P+](CCCCCCCCCCOc2ccc(OCCCN3CCCCC3)cc2)(c2ccccc2)c2ccccc2)cc1 [Compound 6f, Triphenyltriphenyl-(10-(4-(3-(piperidin-1-yl)propoxy)phenoxy)decyl)phosphonium bromide]	0.59 ± 0.06 TE	2.61 µM	–	7.17	pKi (hH3R [3]; Table 2, biological activity repeated next to the IFD results, read-out: Ki): 7.17
CN1CCc2ccc(OCCCN3CCCCC3)cc2C1=O [Compound I]	–	–	–	–	pKi (hH3R [4]; Figure 1, read-out: hH3R Ki): 7.64
CCNC(=O)[C@H]1C[C@@](F)(c2ccc(CN3CCCC3)c(F)c2)C1 [PF-03654746]	–	–	–	–	pKi (hH3R [4]; Table 2, co-crystallized ligand of 7F61, read-out: Ki): 8.49
CNCCc1cnc[nH]1 [[^3H]N^α-methylhistamine, reference compound]	–	–	–	–	pKd (hH3R [3]; probe used at a final concentration of 2 nM, read-out: Kd of the radiolabeled probe): 8.51
